Source: ChEMBL document CHEMBL3734679, “Discovery of Azaindole Ureas as a Novel Class of Bacterial Gyrase B Inhibitors” (J Med Chem, 2015)
Values after ≈ are worked out from the molar mass of the structure shown.

Tests used:
Staphylococcus aureus [1] = assay: Antibacterial activity against methicillin-resistant Staphylococcus aureus 1118 after 18 to 20 hrs by broth microdilution assay; assay type: functional
Enterococcus faecalis = assay: Antibacterial activity against Enterococcus faecalis after 18 to 20 hrs by broth microdilution assay; assay type: functional
Staphylococcus aureus [2] = assay: Antibacterial activity against ciprofloxacin-resistant Staphylococcus aureus 1721 after 18 to 20 hrs by broth microdilution assay; assay type: functional
Enterococcus faecium = assay: Antibacterial activity against Enterococcus faecium after 18 to 20 hrs by broth microdilution assay; assay type: functional
Streptococcus pneumoniae = assay: Antibacterial activity against Streptococcus pneumoniae after 18 to 20 hrs by broth microdilution assay; assay type: functional
DNA gyrase subunit B = DNA gyrase subunit B (Staphylococcus aureus, UniProt P0A0K8); assay: Inhibition of Staphylococcus aureus DNA GyraseB ATPase activity using linear pBR322 DNA as substrate incubated for 30 mins by fluorescence polarization analysis
Staphylococcus aureus [3] = assay: Antibacterial activity against methicillin-susceptible Staphylococcus aureus 42 after 18 to 20 hrs by broth microdilution assay; assay type: functional

DNA gyrase subunit B, sequence (P0A0K8 whole entry): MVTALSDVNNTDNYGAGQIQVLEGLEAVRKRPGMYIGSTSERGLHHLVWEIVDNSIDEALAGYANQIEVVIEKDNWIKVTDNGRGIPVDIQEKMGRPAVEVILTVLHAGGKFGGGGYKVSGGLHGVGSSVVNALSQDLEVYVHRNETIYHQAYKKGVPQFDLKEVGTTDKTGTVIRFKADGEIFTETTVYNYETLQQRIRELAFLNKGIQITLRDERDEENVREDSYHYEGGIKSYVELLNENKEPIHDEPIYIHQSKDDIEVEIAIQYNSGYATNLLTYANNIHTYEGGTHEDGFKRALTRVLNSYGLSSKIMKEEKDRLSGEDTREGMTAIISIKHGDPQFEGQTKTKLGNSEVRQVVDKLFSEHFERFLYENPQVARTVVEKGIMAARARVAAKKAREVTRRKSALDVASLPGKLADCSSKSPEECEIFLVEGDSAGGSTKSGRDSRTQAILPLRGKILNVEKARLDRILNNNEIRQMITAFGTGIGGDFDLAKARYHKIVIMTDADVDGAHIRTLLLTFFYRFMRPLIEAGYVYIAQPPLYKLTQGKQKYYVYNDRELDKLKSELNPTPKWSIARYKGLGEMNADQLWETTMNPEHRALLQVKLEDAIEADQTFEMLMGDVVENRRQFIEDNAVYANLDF

SMILES | MIC (Staphylococcus aureus [1]) [µg/mL] | MIC (Enterococcus faecalis) [µg/mL] | MIC (Staphylococcus aureus [2]) [µg/mL] | MIC (Enterococcus faecium) [µg/mL] | MIC (Streptococcus pneumoniae) [µg/mL] | IC50 (DNA gyrase subunit B) [nM] | MIC (Staphylococcus aureus [3]) [µg/mL]
CCNC(=O)Nc1cn(-c2ncc(Cl)cn2)c2cc(-c3cccnc3)cnc12 | 4 (≈ 10.2 µM) | 0.5 (≈ 1.27 µM) | 4 (≈ 10.2 µM) | 2 (≈ 5.08 µM) | 2 (≈ 5.08 µM) | 92 | 2 (≈ 5.08 µM)
CCNC(=O)Nc1cn(-c2ncccc2C)c2cc(-c3cccnc3)cnc12 | > 32 | > 32 | > 32 | > 32 | > 32 | 1900 | > 32
CCNC(=O)Nc1cn(C2CCN(C)C2=O)c2cc(-c3cccnc3)cnc12 (configuration not stated) |  |  |  |  |  | 5290 | 
CCNC(=O)Nc1cn(C2CCN(C)CC2)c2cc(-c3cccnc3)cnc12 |  |  |  |  |  | 6420 | 
C=CCn1cc(NC(=O)NCC)c2ncc(-c3cccnc3)cc21 |  |  |  |  |  | 430 | 
CCNC(=O)Nc1cn(CC(O)CO)c2cc(-c3cccnc3)cnc12 (configuration not stated) |  |  |  |  |  | 1220 | 
CCNC(=O)Nc1cn(C)c2cc(-c3cccnc3)cnc12 |  |  |  |  |  | 1800 | 
CCNC(=O)Nc1cn(-c2ncc(Cl)cn2)c2cc(-c3cccnc3F)cnc12 | > 32 | > 32 | > 32 | > 32 | > 32 | 6060 | > 32
CCNC(=O)Nc1cn(-c2ncc(C)c(CCCC(=O)O)n2)c2cc(-c3cccnc3)cnc12 | 8 (≈ 17.4 µM) |  | 8 (≈ 17.4 µM) | 8 (≈ 17.4 µM) | 0.5 (≈ 1.09 µM) | 15 | 8 (≈ 17.4 µM)
CCNC(=O)Nc1cn(-c2ncc(F)cn2)c2cc(-c3cccnc3)cnc12 | 32 (≈ 84.8 µM) | 32 (≈ 84.8 µM) | > 32 | 32 (≈ 84.8 µM) | 32 (≈ 84.8 µM) | 127 | 32 (≈ 84.8 µM)
CCNC(=O)Nc1cn(-c2ncc(Br)cn2)c2cc(-c3cccnc3)cnc12 | 2 (≈ 4.56 µM) | 0.25 (≈ 0.57 µM) | 2 (≈ 4.56 µM) | 2 (≈ 4.56 µM) | 1 (≈ 2.28 µM) | 128 | 1 (≈ 2.28 µM)
C=CC(=O)n1cc(NC(=O)NCC)c2ncc(-c3cccnc3)cc21 |  |  |  |  |  | 280 | 
CCNC(=O)Nc1cn(C2CCCCC2)c2cc(-c3cccnc3)cnc12 |  |  |  |  |  | 350 | 
CCNC(=O)Nc1cn(-c2ncc(Br)cn2)c2cc(-c3ccn(C)c(=O)c3)cnc12 | 1 (≈ 2.14 µM) |  | 1 (≈ 2.14 µM) | 1 (≈ 2.14 µM) | 1 (≈ 2.14 µM) | 94 | 1 (≈ 2.14 µM)
CCNC(=O)Nc1cn(-c2ncc(C#N)cn2)c2cc(-c3cccnc3)cnc12 | > 32 | > 32 | > 32 | > 32 | > 32 | 18 | > 32
CCNC(=O)Nc1cn(-c2ncccn2)c2cc(-n3cnc(C(=O)NC4CC4)c3)cnc12 | 4 (≈ 9.27 µM) |  | 4 (≈ 9.27 µM) | 8 (≈ 18.5 µM) | 2 (≈ 4.64 µM) | 10 | 4 (≈ 9.27 µM)
CCNC(=O)Nc1nc(CO)c(-c2ccc[nH]2)s1 |  |  |  |  | 16 (≈ 60.1 µM) | 2500 | 128 (≈ 481 µM)
CCNC(=O)Nc1cn(-c2ncc(CC)cn2)c2cc(-c3ccn(C)c(=O)c3)cnc12 | 1 (≈ 2.4 µM) |  | 1 (≈ 2.4 µM) | 0.25 (≈ 0.599 µM) | 0.25 (≈ 0.599 µM) | 71 | 1 (≈ 2.4 µM)
CCNC(=O)Nc1cn(CCOC)c2cc(-c3cccnc3)cnc12 |  |  |  |  |  | 2400 | 
CCNC(=O)Nc1cn(-c2ncccn2)c2cc(-c3ccn(C)c(=O)c3)cnc12 | 2 (≈ 5.14 µM) |  | 4 (≈ 10.3 µM) | 4 (≈ 10.3 µM) | 2 (≈ 5.14 µM) | 12 | 2 (≈ 5.14 µM)

SMILES | MIC (Staphylococcus aureus [1]) [µg/mL] | MIC (Enterococcus faecalis) [µg/mL] | MIC (Staphylococcus aureus [2]) [µg/mL] | MIC (Enterococcus faecium) [µg/mL] | MIC (Streptococcus pneumoniae) [µg/mL] | IC50 (DNA gyrase subunit B) [nM] | MIC (Staphylococcus aureus [3]) [µg/mL]
CCNC(=O)Nc1cn(-c2nccc(C)n2)c2cc(-c3cccnc3)cnc12 | > 32 | 1 (≈ 2.68 µM) | > 32 | 2 (≈ 5.36 µM) | 4 (≈ 10.7 µM) | 140 | > 32
CCNC(=O)Nc1cn(-c2ncccn2)c2cc(-c3cccnc3)cnc12 | 8 (≈ 22.3 µM) | 2 (≈ 5.56 µM) | 16 (≈ 44.5 µM) | 8 (≈ 22.3 µM) | 4 (≈ 11.1 µM) | < 79 | 8 (≈ 22.3 µM)
CCNC(=O)Nc1c[nH]c2cc(-c3cccnc3)cnc12 | > 32 | > 32 | > 32 | > 32 | > 32 | 6500 | > 32
CCNC(=O)Nc1cn(-c2ncc(Cl)cn2)c2cc(-c3ccn(C)c(=O)c3)cnc12 | 1 (≈ 2.36 µM) |  | 2 (≈ 4.72 µM) | 2 (≈ 4.72 µM) | 1 (≈ 2.36 µM) | 262 | 1 (≈ 2.36 µM)
CCNC(=O)Nc1cn(-c2ncc(CC)cn2)c2cc(-c3cccnc3)cnc12 | 16 (≈ 41.3 µM) | 8 (≈ 20.6 µM) | 16 (≈ 41.3 µM) | 16 (≈ 41.3 µM) | 16 (≈ 41.3 µM) | 46 | 16 (≈ 41.3 µM)
CCNC(=O)Nc1nc(/C=C/c2cccnc2)c(-c2ccc[nH]2)s1 |  |  |  |  |  | 5800 | 
CCNC(=O)Nc1cn(-c2ncc(C)cn2)c2cc(-c3ccn(C)c(=O)c3)cnc12 | > 32 | 0.5 (≈ 1.24 µM) | > 32 | > 32 | 4 (≈ 9.91 µM) | 13 | > 32
CCNC(=O)Nc1cn(-c2ncc(C)cn2)c2cc(-c3cccnc3)cnc12 | 4 (≈ 10.7 µM) | 1 (≈ 2.68 µM) | 4 (≈ 10.7 µM) | 4 (≈ 10.7 µM) | 4 (≈ 10.7 µM) | 64 | 4 (≈ 10.7 µM)
CCNC(=O)Nc1cn(-c2ccccn2)c2cc(-c3cccnc3)cnc12 | 16 (≈ 44.6 µM) | 8 (≈ 22.3 µM) |  | 8 (≈ 22.3 µM) | 8 (≈ 22.3 µM) | 140 | 16 (≈ 44.6 µM)
CCNC(=O)Nc1cn(-c2ncc(C(F)(F)F)cn2)c2cc(-c3cccnc3)cnc12 | > 32 | > 32 | > 32 | > 32 | > 32 | > 100000 | > 32
CCNC(=O)Nc1cn(C(=O)c2ccccn2)c2cc(-c3cccnc3)cnc12 |  |  |  |  |  | 1130 | 
CCNC(=O)Nc1cn(-c2ncc(OC)cn2)c2cc(-c3cccnc3)cnc12 | 8 (≈ 20.5 µM) | 1 (≈ 2.57 µM) | 8 (≈ 20.5 µM) | 8 (≈ 20.5 µM) | 4 (≈ 10.3 µM) | 143 | 4 (≈ 10.3 µM)
CCNC(=O)Nc1cn(-c2ncc(C)c(CCC(=O)O)n2)c2cc(-c3cccnc3)cnc12 | > 32 |  | > 32 | > 32 | 1 (≈ 2.24 µM) | 48 | > 32
CCNC(=O)Nc1cn(-c2ncc(Br)cn2)c2cc(-c3ccn(CCO)c(=O)c3)cnc12 | 8 (≈ 16.1 µM) |  | 8 (≈ 16.1 µM) | 8 (≈ 16.1 µM) | 8 (≈ 16.1 µM) | 8 | 8 (≈ 16.1 µM)
CCNC(=O)Nc1cn(Cc2ccccc2)c2cc(-c3cccnc3)cnc12 |  |  |  |  |  | 3200 | 
CCNC(=O)Nc1cn(-c2ncc(Cl)cn2)c2cc(-c3cnc(C#N)nc3)cnc12 | > 32 | > 32 | > 32 | > 32 | > 32 | 25 | > 32
CCNC(=O)Nc1cn(-c2nccc(CCO)n2)c2cc(-c3cccnc3)cnc12 | 32 (≈ 79.3 µM) |  | 32 (≈ 79.3 µM) | 16 (≈ 39.7 µM) | 8 (≈ 19.8 µM) | 9 | 32 (≈ 79.3 µM)
CCNC(=O)Nc1cn(C2C=CCCC2)c2cc(-c3cccnc3)cnc12 (configuration not stated) |  |  |  |  |  | 240 | 
CCNC(=O)Nc1cn(-c2nccc(CCCO)n2)c2cc(-c3cccnc3)cnc12 | 32 (≈ 76.7 µM) | 0.5 (≈ 1.2 µM) | 32 (≈ 76.7 µM) | 4 (≈ 9.58 µM) | 4 (≈ 9.58 µM) | 42 | 32 (≈ 76.7 µM)
